According to PubChem BioAssay (NCI):
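Test compounds were applied to cells in 96-well plates for 48 hours at 5 doses. GI50 is the concentration that inhibits growth by half. TGI is the concentration that stops growth completely.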

Key:
Experiment in all cases: DTP human tumour cell line panel, 48 h
786-0 renal = test system: 786-0 renal
A498 renal = test system: A498 renal
A549 NSCLC = test system: A549 NSCLC
ACHN renal = test system: ACHN renal
BT-549 breast = test system: BT-549 breast
CAKI-1 renal = test system: CAKI-1 renal
CCRF-CEM leukemia = test system: CCRF-CEM leukemia
COLO 205 colon = test system: COLO 205 colon
DU-145 prostate = test system: DU-145 prostate
HCC-2998 colon = test system: HCC-2998 colon
HCT-116 colon = test system: HCT-116 colon
HCT-15 colon = test system: HCT-15 colon
HL-60(TB) leukemia = test system: HL-60(TB) leukemia
HOP-62 NSCLC = test system: HOP-62 NSCLC
HOP-92 NSCLC = test system: HOP-92 NSCLC
HS 578T breast = test system: HS 578T breast
HT29 colon = test system: HT29 colon
IGROV1 ovarian = test system: IGROV1 ovarian
K-562 leukemia = test system: K-562 leukemia
KM12 colon = test system: KM12 colon
LOX IMVI melanoma = test system: LOX IMVI melanoma
M14 melanoma = test system: M14 melanoma
MALME-3M melanoma = test system: MALME-3M melanoma
MCF7 breast = test system: MCF7 breast
MDA-MB-231 breast = test system: MDA-MB-231 breast
MDA-MB-435 = test system: MDA-MB-435
MOLT-4 leukemia = test system: MOLT-4 leukemia
NCI-H226 lung = test system: NCI-H226 lung
NCI-H23 lung = test system: NCI-H23 lung
NCI-H460 lung = test system: NCI-H460 lung
NCI-H522 lung = test system: NCI-H522 lung
NCI/ADR-RES ovarian = test system: NCI/ADR-RES ovarian
OVCAR-3 ovarian = test system: OVCAR-3 ovarian
OVCAR-4 ovarian = test system: OVCAR-4 ovarian
OVCAR-5 ovarian = test system: OVCAR-5 ovarian
OVCAR-8 ovarian = test system: OVCAR-8 ovarian
PC-3 prostate = test system: PC-3 prostate
RPMI-8226 leukemia = test system: RPMI-8226 leukemia
RXF 393 renal = test system: RXF 393 renal
SF-268 CNS = test system: SF-268 CNS
SF-295 CNS = test system: SF-295 CNS
SF-539 CNS = test system: SF-539 CNS
SK-MEL-2 melanoma = test system: SK-MEL-2 melanoma
SK-MEL-28 melanoma = test system: SK-MEL-28 melanoma
SK-MEL-5 melanoma = test system: SK-MEL-5 melanoma
SK-OV-3 ovarian = test system: SK-OV-3 ovarian
SN12C renal = test system: SN12C renal
SNB-19 CNS = test system: SNB-19 CNS
SNB-75 CNS = test system: SNB-75 CNS
SR leukemia = test system: SR leukemia
SW-620 colon = test system: SW-620 colon
T-47D breast = test system: T-47D breast
TK-10 renal = test system: TK-10 renal
U251 CNS = test system: U251 CNS
UACC-257 melanoma = test system: UACC-257 melanoma
UACC-62 melanoma = test system: UACC-62 melanoma
UO-31 renal = test system: UO-31 renal

CCN(Cc1ccccn1)c1ccc(CO)c(Cl)c1
GI50 (786-0 renal): > 100 µM
TGI (786-0 renal): > 100 µM
GI50 (A498 renal): 0.125 µM
TGI (A498 renal): 0.266 µM
GI50 (A549 NSCLC): 16.6 µM
TGI (A549 NSCLC): > 100 µM
GI50 (ACHN renal): > 100 µM
TGI (ACHN renal): > 100 µM
GI50 (BT-549 breast): > 100 µM
TGI (BT-549 breast): > 100 µM
GI50 (CAKI-1 renal): 39 µM
TGI (CAKI-1 renal): > 100 µM
GI50 (CCRF-CEM leukemia): > 100 µM
TGI (CCRF-CEM leukemia): > 100 µM
GI50 (COLO 205 colon): 4.65 µM
TGI (COLO 205 colon): 16 µM
GI50 (DU-145 prostate): > 100 µM
TGI (DU-145 prostate): > 100 µM
GI50 (HCC-2998 colon): 18.1 µM
TGI (HCC-2998 colon): > 100 µM
GI50 (HCT-116 colon): 1.12 µM
TGI (HCT-116 colon): > 100 µM
GI50 (HCT-15 colon): > 100 µM
TGI (HCT-15 colon): > 100 µM
GI50 (HL-60(TB) leukemia): 46 µM
TGI (HL-60(TB) leukemia): > 100 µM
GI50 (HOP-62 NSCLC): 46.1 µM
TGI (HOP-62 NSCLC): > 100 µM
GI50 (HOP-92 NSCLC): 10 µM
TGI (HOP-92 NSCLC): > 96.6 µM
GI50 (HS 578T breast): > 100 µM
TGI (HS 578T breast): > 100 µM
GI50 (HT29 colon): > 69.8 µM
TGI (HT29 colon): > 100 µM
GI50 (IGROV1 ovarian): 0.68 µM
TGI (IGROV1 ovarian): 3.89 µM
GI50 (K-562 leukemia): 17.3 µM
TGI (K-562 leukemia): > 100 µM
GI50 (KM12 colon): > 100 µM
TGI (KM12 colon): > 100 µM
GI50 (LOX IMVI melanoma): > 100 µM
TGI (LOX IMVI melanoma): > 100 µM
GI50 (M14 melanoma): > 100 µM
TGI (M14 melanoma): > 100 µM
GI50 (MALME-3M melanoma): > 100 µM
TGI (MALME-3M melanoma): > 100 µM
GI50 (MCF7 breast): 2.78 µM
TGI (MCF7 breast): > 100 µM
GI50 (MDA-MB-231 breast): > 100 µM
TGI (MDA-MB-231 breast): > 100 µM
GI50 (MDA-MB-435): > 100 µM
TGI (MDA-MB-435): > 100 µM
GI50 (MOLT-4 leukemia): > 100 µM
TGI (MOLT-4 leukemia): > 100 µM
GI50 (NCI-H226 lung): 0.151 µM
TGI (NCI-H226 lung): 0.332 µM
GI50 (NCI-H23 lung): > 100 µM
TGI (NCI-H23 lung): > 100 µM
GI50 (NCI-H460 lung): 2.71 µM
TGI (NCI-H460 lung): 40.7 µM
GI50 (NCI-H522 lung): > 100 µM
TGI (NCI-H522 lung): > 100 µM
GI50 (NCI/ADR-RES ovarian): 52.2 µM
TGI (NCI/ADR-RES ovarian): > 100 µM
GI50 (OVCAR-3 ovarian): 3.75 µM
TGI (OVCAR-3 ovarian): 23.3 µM
GI50 (OVCAR-4 ovarian): 2.32 µM
TGI (OVCAR-4 ovarian): 34.7 µM
GI50 (OVCAR-5 ovarian): 0.385 µM
TGI (OVCAR-5 ovarian): 1.58 µM
GI50 (OVCAR-8 ovarian): 59.4 µM
TGI (OVCAR-8 ovarian): > 100 µM
GI50 (PC-3 prostate): > 89.8 µM
TGI (PC-3 prostate): > 100 µM
GI50 (RPMI-8226 leukemia): 26.3 µM
TGI (RPMI-8226 leukemia): > 100 µM
GI50 (RXF 393 renal): > 28.4 µM
TGI (RXF 393 renal): > 100 µM
GI50 (SF-268 CNS): > 100 µM
TGI (SF-268 CNS): > 100 µM
GI50 (SF-295 CNS): 4.91 µM
TGI (SF-295 CNS): > 100 µM
GI50 (SF-539 CNS): > 100 µM
TGI (SF-539 CNS): > 100 µM
GI50 (SK-MEL-2 melanoma): > 76.8 µM
TGI (SK-MEL-2 melanoma): > 100 µM
GI50 (SK-MEL-28 melanoma): > 100 µM
TGI (SK-MEL-28 melanoma): > 100 µM
GI50 (SK-MEL-5 melanoma): 72.1 µM
TGI (SK-MEL-5 melanoma): > 100 µM
GI50 (SK-OV-3 ovarian): 36.1 µM
TGI (SK-OV-3 ovarian): > 100 µM
GI50 (SN12C renal): > 100 µM
TGI (SN12C renal): > 100 µM
GI50 (SNB-19 CNS): > 100 µM
TGI (SNB-19 CNS): > 100 µM
GI50 (SNB-75 CNS): > 51.7 µM
TGI (SNB-75 CNS): > 100 µM
GI50 (SR leukemia): > 100 µM
TGI (SR leukemia): > 100 µM
GI50 (SW-620 colon): 22.8 µM
TGI (SW-620 colon): > 100 µM
GI50 (T-47D breast): 0.927 µM
TGI (T-47D breast): 5.5 µM
GI50 (TK-10 renal): 0.199 µM
TGI (TK-10 renal): 0.744 µM
GI50 (U251 CNS): 23.6 µM
TGI (U251 CNS): > 100 µM
GI50 (UACC-257 melanoma): 0.719 µM
TGI (UACC-257 melanoma): 2.42 µM
GI50 (UACC-62 melanoma): 0.923 µM
TGI (UACC-62 melanoma): 7.83 µM
GI50 (UO-31 renal): 69.3 µM
TGI (UO-31 renal): > 100 µM
